One molecule from article PMC12067444, “Synthesis and Pharmacological Characterization of Novel Peripheral Cannabinoid-1 Receptor Blockers Based on a Tricyclic Scaffold” (Journal of Medicinal Chemistry, 2025) can be followed below.

In one series the test system is mouse brain tissue. As to the kind of experiment: Protein binding in mouse brain, equilibrium dialysis. The method, then: (§1) Protein binding of test compound in mouse brain using equilibrium dialysis […]
(§2) method. Solution A (0. 5 mM) was prepared by mixing 10 µL of a 10 mM stock solution […]
(§3) with 190 µL of DMSO. Subsequently, Solution B (0.02 mM) was prepared by adding […]
(§4) 8 µL of solution A to 192 µL of 0.05 M sodium phosphate buffer. The final concentration of DMSO in Solution B was 4%.
(§5) A 96-well plate was initially prepared by dispensing 380 µL aliquots of brain […]
(§6) tissue into wells designated for the brain while t h e buffer was added to the remaining […]
(§7) wells to serve as a control. Subsequently, 20 µL of Solution B (containing 0.02 mM of […]
(§8) test and reference compounds) was spiked into the pre-loaded brain samples in the […]
(§9) plate. This step yielded a final test concentration of 1 µM, containing 0.2% DMSO. A duplicate system was establi shed for the dialysis sampl es wherein brain tissu e was prepared against buffer. Initially, 100 µL aliquots of blank dialysis buffer were applied to the receiver side of the dialysis chambers. Subsequently, 100 µL aliquots of the brain […]
(§10) tissue spiked with te st and reference compounds were applied to the donor side of the […]
(§11) T0 brain samples for initial concentrations were prepared in duplicate. A 25µL […]
(§12) aliquot of the brain spiked with test and reference compounds was transferred into a 96- […]
(§13) well sample preparation plate. An equivalent volume of blank buffer was then added […]
(§14) to each well. Af ter the 5-hour incubation period, aliquots of 25 µL wer e taken f r om t h e […]
(§15) dialysis apparatus's donor and receiver sides and transferred into new sample […]
(§16) preparation plates. An equal volume of the opposite matrix (blank buffer to brain and […]
(§17) vice versa) was added to each well, resulting in a final volume of 50 µL in each well.
(§18) The samples (both T0 and f i v e h) were then quenched with 200 µL of acetonitrile […]
(§19) containing internal standard (IS) and vortexed at 600 rpm for 10 minutes. After […]
(§20) vortexing, the samples were centrifuged at 5594 × g for 15 minutes. Subsequently, 50 […]
(§21) µL of the supernatants were transferred to a new 96-well plate and mixed with 50 µL […]
(§22) of Milli- Q water. T he sample plates wer e cover ed and stor ed in a f r eezer ( -20 ℃) until […]
(§23) respectively. For data analysis, the following equations wer e used:
(§24) % Bound = 100 × ([Donor]5h -[ Receiver] 5h) / [Donor] 5h
(§25) % Recovery= 100 × ([Donor]5h +[Receiver] 5h) / [Initial] 0h
(§26) Undiluted Fu (%) = (1/D) / [(1/Fu2-1 ) + 1/ D ]
(§27) Whereas; D: Dilution factor = Dilution factor of brain: 4

Test in series [1]: as above
To be noted: mouse. How it is done:
as §1, §2, §3, §4, §5, §6, §7, §8, §9, §10, §11, §12, §13, §14, §15, §16, §17, §18, §19, §20, §21, §22, §23, §24, §25, §26, §27

In series [2] the test system is bacteria strains TA98, TA100. The series can be described thus: Mini-Ames assay, overall result. Type of series: cell-based. The method, then: Mini Am es assay. To conduct the assay, top agar was melted with a microwave and maintained at a temper atur e ≥47 °C in a water bath. T he assay was performed using a heat block set to 45 °C ± 2 °C. 12 × 75 mm test tubes were prepared in duplicates. For each concentration, the following components were added sequentially to a test tube:
[…] The mixture was vortexed and then dispensed into w ells using a dispo sable pipette. The plates wer e then incubated at 37±2 °C for approximately 48 to 72 hours.
BBbbbb BBBBbbbb BBBB = AAAAbbbbbbAAbb nnnnnnbbbbbb bboo bbbbAAbbbbbbbbnnbbbb oobbbb bbbb eeee dd bbbbbb AAbbbbnn gg AAAAbbbbbbAAbb nnnnnnbbbbbb bbBB bbbbAAbbbbbbbbnnbbbb BBbbbb DDDDDDDD nn bbAAbbbbaaAAbb AAbbbbnnaa The mutagenicity of the compound was determined by evaluating the number of revertant colonies in strains TA98 and TA100. A compound was […]
related and if the fold increase in revertants (F) was equal to or greater than 2 for […]
background lawn growth on the agar plates. A scoring system ranging from 0 to 4 […]
complete cytotoxicity, while scores 1, 2, and 3 represented 25%, 50%, and 75% growth, respectively. A score of 4 signified full '100%' growth. The background […]
background lawn and required magnification for visualization. […]
(In general: The Ames test uses bacterial strains that need an amino acid and regain growth without it when mutated back.)

A further series deals with mice. As to the kind of experiment: Cataleptic behavior (bar test) induced by WIN-55,212. Type of series: in vivo, mouse. As to conditions: rimonabant 10 mg/kg PO, BNS808 1 mg/kg; 30 min before WIN-55,212 3 mg/kg IP; bar test at 60 min. How it is done:
Catalepsy was assayed using the bar test. Mice were taken out of their home cages, and their forepaws were placed on a horizontal bar measuring 0.5 cm in diameter, positioned 4 cm above the bench surface. Typically, vehicle-treated mice released the bar within 2 s. Cataleptic behavior was defined as the mice remaining motionless, grasping onto the bar, with an arbitrary cutoff of 30 s. The CB1R antagonists, including rimonabant at doses 1 and 10 mg/kg and BNS808 at a dose of 1 mg/kg, were administered 30 min before the IP injection of 3 mg/kg WIN-55,212 (a CB1R agonist). The test was conducted 60 min after the administration of the agonist.

Consider `O=S(=O)(NC1CCCOc2c1nn(-c1ccccc1Cl)c2-c1ccc(Cl)cc1)c1ccc(Cl)cc1` (stereo not shown) [BNS808, 4-chloro-N-[2-(2-chlorophenyl)-3-(4-chlorophenyl)-5,6,7,8-tetrahydrooxepino[3,2-c]pyrazol-8-yl]benzenesulfonamide], for which, in the series with mouse brain tissue (equilibrium dialysis, 1 µM, 5 h), the “protein binding in mouse brain (category)” value is “extremely high protein binding and high”. Moreover, the “Fraction of bound (%)” value in the series on mouse brain tissue (mouse brain, diluted homogenate, 5 h) is 100%. The “Undiluted Bound (%)” value in the series on mouse brain tissue (mouse brain, dilution factor 4) stood at 100.0%. In series [1], this molecule came in with a recovery at 5 h, 1 µM of 81.8%. Further, the “toxicity in mini-Ames assay” value in series [2] (31.25 to 1000 μg/well, TA98 and TA100) was “no toxicity”. Besides, the “mini-Ames assay (mutagenic effect)” value in series [2] (TA98 and TA100, with and without S9) was “nonmutagenic ^b”. For the same molecule, the “blockade of WIN-55,212-induced cataleptic behavior” value with mice is “only rimonabant (10 mg/kg, PO) blocked the cataleptic behavior”.
